# Reference: patent US20130130306A1, “ZN (II) BASED COLORIMETRIC SENSOR AND PROCESS FOR THE PREPARATION THEREOF” (COUNCIL OF SCIENTIFIC & INDUSTRIAL RESEARCH, priority 2010, published 2013)
# Test: Solubility in water without and with α-cyclodextrin
# Format: physicochemical
# Experimental: Solubility of L.Zn (Scheme 1, Formula 1A) in water is limited (0.0448 gL^−1). However, this could be enhanced in presence of α-cyclodextrin (c-CD). 2.3 mg of L.Zn (Scheme 1, Formula 1A) was dissolved in 5 mL of double distilled water and stirred at 25 to 35° C. for 1 hour. […] Similar experiment was repeated in presence of α-CD. In this case 14.2 mg of α-CD was dissolved in 5 mL of double distilled water containing 2.913 mg of L.Zn (Scheme 1, Formula 1A) and this solution was stirred at 25° C. for 1 hour; while a solution with little suspended solid was obtained. This was filtered using G-4 gooch crucible. Filtrate was collected and optical density (O.D.) of the filtrate was monitored at 458 nm. Considering the complete formation of the inclusion complex (pseudorotaxane form), concentration was evaluated based on the known εLZn.α-CD value and the O.D. at 458 nm. […] L.Zn (Scheme 1, Formula 1A) present in aqueous solution in the pseudorotaxane form is being represented as L.Zn.CD in Scheme 2.
smiles,measurement,setting,value
CN(C)c1ccc(N=Nc2ccc(S(=O)(=O)N3CCCNCCNCCCNCC3)cc2)cc1.O=[N+]([O-])[O-].O=[N+]([O-])[O-].[Zn+2] [L.Zn],L.Zn present in solution in presence of α-CD,"14.2 mg α-CD in 5 mL double distilled water, 25° C., O.D. at 458 nm",0.34 g/L
same,solubility in water,"double distilled water, stirred 1 hour, from optical density of filtrate",0.0448 gL^−1
same,solubility in water,present reagent,completely soluble in water
same,increase in solubility in presence of α-CD,"water, with versus without α-CD",~7.5 fold
